Results from US20190263796A1, “LIM KINASE INHIBITORS, PHARMACEUTICAL COMPOSITION AND METHOD OF USE IN LIMK-MEDIATED DISEASES” (CELLIPSE, priority 2016, published 2019).
pIC50: −log10 of the molar value.

What was measured:
[1] = test system: Phospho-Ser3-Cofilin/Total Cofilin; assay: Western blot cofilin phosphorylation, Kasumi-1; type: cell-based; conditions: Homo sapiens; Kasumi-1 cells; 2 h
Experimental: (§1) Kasumi-1 cell line was originally purchased from the American Type Culture Collection (ATCC). Kasumi-1 cells are cultured in RPMI 1640 20% (v/v) FBS supplemented with 100 U/mL^−1 penicillin, 0.1 mg·mL^−1 streptomycin (PAN Biotech P06-07100). Cells were maintained at 37° C. with 5% CO2.
In a 6 wells plate (Falcon 353046), 2·10^6 cells in 1.5 mL medium are treated for 2 h with compounds. Cells are then collected and cell lysis is performed at 4° C. using RIPA buffer supplemented with protease inhibitors cocktail (Sigma-Aldrich P8340) and phosphatase inhibitors cocktail (Sigma-Aldrich P5726). Following centrifugation 30 min 15000 g 4° C., supernatants are mixed with Laemmli buffer and denaturation is performed by heating 5 min 95° C. 10 μL of samples are subjected to electrophoresis on 15% SDS-PAGE. After electro-transfer (Mini Transblot, Bio-Rad), the PVDF membrane (Merck-Millipore Immobilon P IPVH00010) is blocked with Tris Buffered Saline, pH 7.4 (TBS) with 0.1% Tween 20 and 5% BSA for 1 h RT under agitation. […] For each concentration of compound, ratio between phosphorylated cofilin and total cofilin is determined. This ratio is then expressed as percentage of control ratio (i.e., ratio from DMSO treated cells). IC50 Phospho-Ser3-Cofilin/Total Cofilin is then determined.

PAK1(h) = biological target: T1, PAK1(h) (Homo sapiens, UniProt Q13153); assay: KinaseProfiler panel: PAK1(h); type: biochemical; conditions: residual activity, 5 μM inhibitor, Km ATP
T1 construct: purchased Merck-Millipore (KinaseProfiler panel service)
T1 sequence (Q13153 whole entry): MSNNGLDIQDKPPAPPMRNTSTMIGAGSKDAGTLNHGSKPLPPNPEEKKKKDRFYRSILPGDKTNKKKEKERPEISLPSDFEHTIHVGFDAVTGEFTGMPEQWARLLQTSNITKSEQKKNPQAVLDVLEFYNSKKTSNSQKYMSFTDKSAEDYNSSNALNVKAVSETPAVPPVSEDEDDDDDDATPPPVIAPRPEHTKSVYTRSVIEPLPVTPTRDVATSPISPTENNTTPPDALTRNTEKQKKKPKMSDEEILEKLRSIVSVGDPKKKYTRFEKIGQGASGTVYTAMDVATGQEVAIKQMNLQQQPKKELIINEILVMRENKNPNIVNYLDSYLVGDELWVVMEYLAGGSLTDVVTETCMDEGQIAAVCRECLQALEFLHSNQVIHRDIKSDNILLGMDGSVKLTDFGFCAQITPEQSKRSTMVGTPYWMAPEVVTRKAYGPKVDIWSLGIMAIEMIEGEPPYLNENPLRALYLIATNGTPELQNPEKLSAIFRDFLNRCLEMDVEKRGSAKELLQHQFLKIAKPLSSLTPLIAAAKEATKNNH
Experimental: (§2) Kinase selectivity was performed on a panel of 58 recombinant protein kinases. The assays were performed in the presence of 5 μM inhibitor at the respective Km ATP for each kinase, using the KinaseProfiler panel service (Merck-Millipore). Residual activity measured in the presence of […] inhibitor is expressed as the percent of activity determined in the absence of inhibitor.

PKCα(h) = biological target: T2, PKCα(h) (Homo sapiens, UniProt P17252); assay: KinaseProfiler panel: PKCα(h); type: biochemical; conditions: residual activity, 5 μM inhibitor, Km ATP
T2 construct: purchased Merck-Millipore (KinaseProfiler panel service)
Experimental: as §2

B-Raf(V599E)(h) = biological target: T3, B-Raf(V599E)(h) (Homo sapiens, UniProt P15056, V600E); assay: KinaseProfiler panel: B-Raf(V599E)(h); type: biochemical; conditions: residual activity, 5 μM inhibitor, Km ATP
T3 construct: purchased Merck-Millipore (KinaseProfiler panel service)
Experimental: as §2

LKB1(h) = biological target: T4, LKB1(h) (Homo sapiens, UniProt Q15831); assay: KinaseProfiler panel: LKB1(h); type: biochemical; conditions: residual activity, 5 μM inhibitor, Km ATP
T4 construct: purchased Merck-Millipore (KinaseProfiler panel service)
Experimental: as §2

IKKα(h) = biological target: T5, IKKα(h) (Homo sapiens, UniProt O15111); assay: KinaseProfiler panel: IKKα(h); type: biochemical; conditions: residual activity, 5 μM inhibitor, Km ATP
T5 construct: purchased Merck-Millipore (KinaseProfiler panel service)
Experimental: as §2

[2] = test system: Phospho-Ser3-Cofilin/Total Cofilin; assay: Western blot of cellular cofilin phosphorylation status, MV4-11 (II.4); type: cell-based; conditions: Homo sapiens; MV4-11 cells; 2 h treatment
Experimental: as §1, with “MV4-11” for “Kasumi-1”, “10%” for “20%”, “P06-07100) and 2 mM Glutamine (Sigma-Aldrich 59202C).” for “P06-07100).”
In a 6 wells plate (Falcon 353046), 2·10^6 cells in 1.5 mL medium are treated for 2 h with compounds. Cells are then collected and cell lysis is performed at 4° C. using RIPA buffer supplemented with protease inhibitors cocktail (Sigma-Aldrich P8340) and phosphatase inhibitors cocktail (Sigma-Aldrich P5726). Following centrifugation 30 min 15000 g 4° C., supernatants are mixed with Laemmli buffer and denaturation is performed by heating 5 min 95° C. 10 μL of samples are subjected to electrophoresis on 15% SDS-PAGE. After electro-transfer (Mini Transblot, Bio-Rad), the PVDF membrane (Merck-Millipore Immobilon P IPVH00010) is blocked with Tris Buffered Saline, pH 7.4 (TBS) with 0.1% Tween 20 and 5% BSA for 1 h RT under agitation. The membrane was rinsed 3 times 10 min RT under agitation with TBS, 0.1% Tween-20 (TBST) and then 1 h RT with anti-phospho-Ser3-cofilin (Cell Signaling Technology #3313, 1/1000 dilution) antibody or anti-cofilin (Cell Signaling Technology #3312, 1/1000 dilution) diluted in TBS, 0.1% Tween 20 and 1% BSA. The membrane is then rinsed 3 times 10 min RT under agitation in TBST and incubated for 1 hour with anti-rabbit secondary antibody, horseradish peroxidase conjugated (Jackson Immunoresearch #711-036-152) under agitation at room temperature. After three washes 10 min RT in TBST, the detection of total or phosphorylated cofilin was performed using chemiluminescence kit ECL™ Plus (GE Healthcare RPN2132). For each concentration of compound, ratio between phosphorylated cofilin and total cofilin is determined. This ratio is then expressed as percentage of control ratio (i.e ratio from DMSO treated cells). IC50 is then determined.

TrkB(h) = biological target: T6, TrkB(h) (Homo sapiens, UniProt Q16620); assay: KinaseProfiler panel: TrkB(h); type: biochemical; conditions: residual activity, 5 μM inhibitor, Km ATP
T6 construct: purchased Merck-Millipore (KinaseProfiler panel service)
T6 sequence (Q16620 32-822): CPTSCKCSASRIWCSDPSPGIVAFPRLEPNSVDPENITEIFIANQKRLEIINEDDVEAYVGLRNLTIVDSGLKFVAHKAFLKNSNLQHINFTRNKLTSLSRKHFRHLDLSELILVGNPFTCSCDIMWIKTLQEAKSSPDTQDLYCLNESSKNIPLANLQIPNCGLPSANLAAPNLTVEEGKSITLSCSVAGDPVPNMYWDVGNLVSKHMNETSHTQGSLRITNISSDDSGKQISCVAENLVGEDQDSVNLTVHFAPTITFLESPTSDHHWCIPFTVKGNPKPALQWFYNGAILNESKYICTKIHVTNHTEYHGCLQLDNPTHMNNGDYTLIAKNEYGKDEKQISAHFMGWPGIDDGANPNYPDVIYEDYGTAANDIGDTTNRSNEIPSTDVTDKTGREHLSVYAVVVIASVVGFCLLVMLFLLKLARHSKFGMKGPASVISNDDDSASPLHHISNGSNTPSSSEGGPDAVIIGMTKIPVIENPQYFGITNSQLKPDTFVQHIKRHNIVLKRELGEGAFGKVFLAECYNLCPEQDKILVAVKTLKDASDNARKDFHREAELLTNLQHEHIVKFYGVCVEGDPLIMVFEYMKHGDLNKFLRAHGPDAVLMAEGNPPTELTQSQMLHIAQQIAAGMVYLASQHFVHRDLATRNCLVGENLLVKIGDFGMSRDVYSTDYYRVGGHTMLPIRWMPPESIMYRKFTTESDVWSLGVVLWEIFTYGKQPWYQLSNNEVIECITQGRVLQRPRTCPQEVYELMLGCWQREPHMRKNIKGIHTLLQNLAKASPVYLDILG
Experimental: as §2

PAK2(h) = biological target: T7, PAK2(h) (Homo sapiens, UniProt Q13177); assay: KinaseProfiler panel: PAK2(h); type: biochemical; conditions: residual activity, 5 μM inhibitor, Km ATP
T7 construct: purchased Merck-Millipore (KinaseProfiler panel service)
Experimental: as §2

PDGFRα(h) = biological target: T8, PDGFRα(h) (Homo sapiens, UniProt P16234); assay: KinaseProfiler panel: PDGFRα(h); type: biochemical; conditions: residual activity, 5 μM inhibitor, Km ATP
T8 construct: purchased Merck-Millipore (KinaseProfiler panel service)
Experimental: as §2

GSK3β(h) = biological target: T9, GSK3β(h) (Homo sapiens, UniProt P49841); assay: KinaseProfiler panel: GSK3β(h); type: biochemical; conditions: residual activity, 5 μM inhibitor, Km ATP
T9 construct: purchased Merck-Millipore (KinaseProfiler panel service)
T9 sequence (P49841 whole entry): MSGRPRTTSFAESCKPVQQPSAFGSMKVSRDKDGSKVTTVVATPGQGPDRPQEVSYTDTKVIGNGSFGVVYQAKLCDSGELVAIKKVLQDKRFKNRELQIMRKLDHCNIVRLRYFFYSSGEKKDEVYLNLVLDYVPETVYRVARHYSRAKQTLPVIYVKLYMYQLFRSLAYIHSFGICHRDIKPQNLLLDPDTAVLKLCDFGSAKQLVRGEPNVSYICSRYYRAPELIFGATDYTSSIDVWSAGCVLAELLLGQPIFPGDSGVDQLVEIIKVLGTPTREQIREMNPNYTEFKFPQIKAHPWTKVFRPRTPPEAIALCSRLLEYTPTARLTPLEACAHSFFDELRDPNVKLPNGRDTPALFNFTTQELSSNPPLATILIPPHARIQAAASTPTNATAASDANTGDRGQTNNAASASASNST
Experimental: as §2

MEK1(h) = biological target: T10, MEK1(h) (Homo sapiens, UniProt Q02750); assay: KinaseProfiler panel: MEK1(h); type: biochemical; conditions: residual activity, 5 μM inhibitor, Km ATP
T10 construct: purchased Merck-Millipore (KinaseProfiler panel service)
T10 sequence (Q02750 whole entry): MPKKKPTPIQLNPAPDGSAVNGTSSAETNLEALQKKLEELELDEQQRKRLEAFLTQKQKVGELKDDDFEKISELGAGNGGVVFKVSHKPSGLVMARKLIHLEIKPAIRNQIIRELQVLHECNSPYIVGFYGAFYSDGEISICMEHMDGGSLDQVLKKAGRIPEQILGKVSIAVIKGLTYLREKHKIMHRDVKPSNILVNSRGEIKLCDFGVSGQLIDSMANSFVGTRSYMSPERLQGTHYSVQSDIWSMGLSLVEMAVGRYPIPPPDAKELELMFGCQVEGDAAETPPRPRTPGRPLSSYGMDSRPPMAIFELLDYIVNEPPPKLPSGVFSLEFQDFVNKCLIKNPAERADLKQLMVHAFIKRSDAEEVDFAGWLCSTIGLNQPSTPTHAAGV
Experimental: as §2

TrkC(h) = biological target: T11, TrkC(h) (Homo sapiens, UniProt Q16288); assay: KinaseProfiler panel: TrkC(h); type: biochemical; conditions: residual activity, 5 μM inhibitor, Km ATP
T11 construct: purchased Merck-Millipore (KinaseProfiler panel service)
T11 sequence (Q16288 32-839): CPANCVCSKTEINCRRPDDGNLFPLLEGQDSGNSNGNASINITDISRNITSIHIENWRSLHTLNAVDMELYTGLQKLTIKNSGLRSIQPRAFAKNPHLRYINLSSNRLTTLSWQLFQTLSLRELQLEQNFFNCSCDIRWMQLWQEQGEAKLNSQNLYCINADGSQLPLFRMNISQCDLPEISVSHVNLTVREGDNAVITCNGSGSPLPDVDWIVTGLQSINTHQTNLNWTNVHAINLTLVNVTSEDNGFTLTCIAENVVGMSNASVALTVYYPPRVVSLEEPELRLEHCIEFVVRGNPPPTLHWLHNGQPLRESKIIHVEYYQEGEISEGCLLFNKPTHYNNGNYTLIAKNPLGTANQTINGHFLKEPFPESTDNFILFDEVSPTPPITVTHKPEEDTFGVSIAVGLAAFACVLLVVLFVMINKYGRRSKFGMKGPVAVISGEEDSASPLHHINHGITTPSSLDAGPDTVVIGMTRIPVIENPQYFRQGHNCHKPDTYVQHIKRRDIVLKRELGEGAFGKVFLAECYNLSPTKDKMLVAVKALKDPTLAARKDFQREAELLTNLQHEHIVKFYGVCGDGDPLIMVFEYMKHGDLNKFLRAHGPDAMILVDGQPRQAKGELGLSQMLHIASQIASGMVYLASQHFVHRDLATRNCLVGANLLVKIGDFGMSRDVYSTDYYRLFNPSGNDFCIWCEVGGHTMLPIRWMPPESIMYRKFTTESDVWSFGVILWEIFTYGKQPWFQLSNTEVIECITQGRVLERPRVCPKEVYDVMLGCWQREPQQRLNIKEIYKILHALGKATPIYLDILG
Experimental: as §2

FGFR1(h) = biological target: T12, FGFR1(h) (Homo sapiens, UniProt P11362); assay: KinaseProfiler panel: FGFR1(h); type: biochemical; conditions: residual activity, 5 μM inhibitor, Km ATP
T12 construct: purchased Merck-Millipore (KinaseProfiler panel service)
T12 sequence (P11362 22-822): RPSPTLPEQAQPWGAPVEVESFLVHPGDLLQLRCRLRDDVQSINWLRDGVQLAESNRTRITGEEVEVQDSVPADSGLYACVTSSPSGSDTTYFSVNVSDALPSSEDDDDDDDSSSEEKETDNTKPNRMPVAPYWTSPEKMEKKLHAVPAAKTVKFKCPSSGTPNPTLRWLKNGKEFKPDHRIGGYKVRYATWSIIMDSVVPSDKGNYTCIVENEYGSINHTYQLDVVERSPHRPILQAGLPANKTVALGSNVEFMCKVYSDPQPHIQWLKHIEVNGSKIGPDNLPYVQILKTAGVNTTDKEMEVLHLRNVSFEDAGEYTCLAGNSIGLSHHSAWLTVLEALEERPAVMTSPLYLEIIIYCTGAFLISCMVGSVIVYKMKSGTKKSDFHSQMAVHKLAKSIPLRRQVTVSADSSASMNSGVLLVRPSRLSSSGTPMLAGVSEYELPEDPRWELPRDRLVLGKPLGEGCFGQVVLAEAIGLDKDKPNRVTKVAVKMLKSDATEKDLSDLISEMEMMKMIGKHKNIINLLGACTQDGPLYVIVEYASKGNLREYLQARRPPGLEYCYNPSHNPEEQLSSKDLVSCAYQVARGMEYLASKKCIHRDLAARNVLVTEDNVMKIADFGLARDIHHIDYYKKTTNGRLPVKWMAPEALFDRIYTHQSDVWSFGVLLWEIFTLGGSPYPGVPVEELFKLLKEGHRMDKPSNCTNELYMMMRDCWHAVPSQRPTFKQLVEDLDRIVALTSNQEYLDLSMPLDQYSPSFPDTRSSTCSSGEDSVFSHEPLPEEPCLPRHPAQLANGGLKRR
Experimental: as §2

PKBα(h) = biological target: T13, PKBα(h) (Homo sapiens, UniProt P31749); assay: KinaseProfiler panel: PKBα(h); type: biochemical; conditions: residual activity, 5 μM inhibitor, Km ATP
T13 construct: purchased Merck-Millipore (KinaseProfiler panel service)
T13 sequence (P31749 whole entry): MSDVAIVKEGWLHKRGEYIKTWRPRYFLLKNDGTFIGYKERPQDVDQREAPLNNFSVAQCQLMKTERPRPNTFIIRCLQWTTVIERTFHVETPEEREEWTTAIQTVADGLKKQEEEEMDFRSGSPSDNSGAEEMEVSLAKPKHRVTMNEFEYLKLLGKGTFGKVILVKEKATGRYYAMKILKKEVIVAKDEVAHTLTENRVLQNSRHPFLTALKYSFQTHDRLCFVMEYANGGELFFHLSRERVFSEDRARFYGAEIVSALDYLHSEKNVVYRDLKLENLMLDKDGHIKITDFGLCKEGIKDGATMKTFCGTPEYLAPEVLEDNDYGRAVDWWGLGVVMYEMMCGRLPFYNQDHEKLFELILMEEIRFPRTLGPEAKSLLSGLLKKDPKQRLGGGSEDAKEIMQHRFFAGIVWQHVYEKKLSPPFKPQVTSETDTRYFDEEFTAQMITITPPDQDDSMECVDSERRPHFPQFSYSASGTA
Experimental: as §2

pIC50 [1]	Structure (SMILES)	activity at 5 µM (PAK1(h)) [%]	activity at 5 µM (PKCα(h)) [%]	activity at 5 µM (B-Raf(V599E)(h)) [%]	activity at 5 µM (LKB1(h)) [%]	activity at 5 µM (IKKα(h)) [%]	pIC50 [2]	activity at 5 µM (TrkB(h)) [%]	activity at 5 µM (PAK2(h)) [%]	activity at 5 µM (PDGFRα(h)) [%]	activity at 5 µM (GSK3β(h)) [%]	activity at 5 µM (MEK1(h)) [%]	activity at 5 µM (TrkC(h)) [%]	activity at 5 µM (FGFR1(h)) [%]	activity at 5 µM (PKBα(h)) [%]
> 6.70	O=S(=O)(Nc1cccc(-c2nc(CCO)sc2-c2ccnc(Nc3ccccc3)n2)c1F)c1c(F)cccc1F [8 (Na)]														
	CC(C)(C)c1nc(-c2cccc(NS(=O)(=O)c3c(F)cccc3F)c2F)c(-c2ccnc(Nc3ccccc3)n2)s1 [Compound 1, N-(3-(2-(tert-butyl)-5-(2-(phenylamino)pyrimidin-4-yl)thiazol-4-yl)-2-fluorophenyl)-2,6-difluorobenzenesulfonamide]	≥ 50	≥ 50	3 to 10	≥ 50	≥ 50	> 6.70	≥ 50	≥ 50	≥ 50	≥ 50	≥ 50	≥ 50	≥ 50	≥ 50
